Patent US20240024488A1, “COMPOUNDS AND USES THEREOF” (Foghorn Therapeutics Inc., priority 2020, published 2024)

Columns and labels:
[1] = target: T1, HiBit-BRG1 fusion protein (Homo sapiens, UniProt P51532); test: HiBiT-BRG1 cell-based degradation assay (Nano-Glo HiBiT Lytic Detection, 24 h); conditions: HeLa cell line expressing HiBit-BRG1 and LgBit; for Dmax: read-out: BRG1 HiBit Degradation Maximum (%); for DC50: read-out: BRMG1 HiBit Degradation IC50
T1 construct: expressed in transfected cells
T1 sequence (P51532 whole entry, the tested form may be a part): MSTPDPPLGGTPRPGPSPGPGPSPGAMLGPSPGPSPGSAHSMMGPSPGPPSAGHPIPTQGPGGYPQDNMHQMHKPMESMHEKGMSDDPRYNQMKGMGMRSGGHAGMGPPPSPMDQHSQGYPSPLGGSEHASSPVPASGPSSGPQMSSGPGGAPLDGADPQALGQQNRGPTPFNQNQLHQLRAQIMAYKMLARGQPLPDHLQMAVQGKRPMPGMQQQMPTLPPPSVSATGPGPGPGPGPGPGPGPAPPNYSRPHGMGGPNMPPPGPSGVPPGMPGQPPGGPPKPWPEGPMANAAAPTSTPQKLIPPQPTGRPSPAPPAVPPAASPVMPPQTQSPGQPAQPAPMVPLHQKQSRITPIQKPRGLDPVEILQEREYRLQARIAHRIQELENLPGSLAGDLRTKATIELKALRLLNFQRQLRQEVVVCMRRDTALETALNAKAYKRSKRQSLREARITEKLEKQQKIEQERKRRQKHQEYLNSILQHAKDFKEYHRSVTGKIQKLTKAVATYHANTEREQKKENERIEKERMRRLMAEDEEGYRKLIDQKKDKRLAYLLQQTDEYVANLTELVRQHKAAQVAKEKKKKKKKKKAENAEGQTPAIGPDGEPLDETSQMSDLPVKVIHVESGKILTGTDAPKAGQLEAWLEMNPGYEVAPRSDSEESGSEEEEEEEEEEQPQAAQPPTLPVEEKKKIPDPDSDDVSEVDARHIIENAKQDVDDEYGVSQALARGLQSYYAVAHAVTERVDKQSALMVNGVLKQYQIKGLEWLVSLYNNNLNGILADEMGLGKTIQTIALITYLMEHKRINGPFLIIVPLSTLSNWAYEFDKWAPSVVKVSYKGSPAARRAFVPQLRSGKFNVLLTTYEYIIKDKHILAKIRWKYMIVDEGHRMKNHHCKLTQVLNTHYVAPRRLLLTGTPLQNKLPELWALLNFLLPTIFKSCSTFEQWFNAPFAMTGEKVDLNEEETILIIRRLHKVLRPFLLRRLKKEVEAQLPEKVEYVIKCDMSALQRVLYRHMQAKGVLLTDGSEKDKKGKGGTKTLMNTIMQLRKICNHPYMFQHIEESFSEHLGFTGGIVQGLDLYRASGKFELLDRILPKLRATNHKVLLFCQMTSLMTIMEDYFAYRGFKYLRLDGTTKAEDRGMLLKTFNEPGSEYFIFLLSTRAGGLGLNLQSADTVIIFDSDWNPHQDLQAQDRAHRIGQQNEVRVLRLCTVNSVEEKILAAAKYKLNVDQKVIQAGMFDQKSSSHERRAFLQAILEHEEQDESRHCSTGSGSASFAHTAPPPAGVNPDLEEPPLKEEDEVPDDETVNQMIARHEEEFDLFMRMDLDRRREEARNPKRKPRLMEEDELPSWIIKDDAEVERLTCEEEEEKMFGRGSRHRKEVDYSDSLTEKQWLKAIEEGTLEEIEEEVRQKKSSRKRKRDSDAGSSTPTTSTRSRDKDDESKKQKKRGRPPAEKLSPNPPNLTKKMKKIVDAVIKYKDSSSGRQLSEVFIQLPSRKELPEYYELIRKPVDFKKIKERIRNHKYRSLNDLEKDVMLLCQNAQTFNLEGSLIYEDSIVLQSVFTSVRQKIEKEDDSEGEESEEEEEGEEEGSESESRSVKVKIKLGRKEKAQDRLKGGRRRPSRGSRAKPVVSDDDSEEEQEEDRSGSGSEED
Summary of the method: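 Luminescence from reconstituted NanoBiT luciferase after lytic detection served as read-out of remaining HiBit-BRG1 in stable HeLa cells, which also express LgBit. Cells were seeded at 5000 per well and incubated with compound for 24 h. DMSO and a 2 μM known degrader defined the control range.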

HiBit-BRM fusion protein = target: T2, HiBit-BRM fusion protein (Homo sapiens, UniProt P51531); test: HiBiT-BRM cell-based degradation assay (Nano-Glo HiBiT Lytic Detection, 24 h); conditions: HeLa cell line expressing HiBiT-BRM; for DC50: read-out: BRM HiBit Degradation IC50
T2 construct: expressed in transfected cells
T2 sequence (P51531 whole entry, the tested form may be a part): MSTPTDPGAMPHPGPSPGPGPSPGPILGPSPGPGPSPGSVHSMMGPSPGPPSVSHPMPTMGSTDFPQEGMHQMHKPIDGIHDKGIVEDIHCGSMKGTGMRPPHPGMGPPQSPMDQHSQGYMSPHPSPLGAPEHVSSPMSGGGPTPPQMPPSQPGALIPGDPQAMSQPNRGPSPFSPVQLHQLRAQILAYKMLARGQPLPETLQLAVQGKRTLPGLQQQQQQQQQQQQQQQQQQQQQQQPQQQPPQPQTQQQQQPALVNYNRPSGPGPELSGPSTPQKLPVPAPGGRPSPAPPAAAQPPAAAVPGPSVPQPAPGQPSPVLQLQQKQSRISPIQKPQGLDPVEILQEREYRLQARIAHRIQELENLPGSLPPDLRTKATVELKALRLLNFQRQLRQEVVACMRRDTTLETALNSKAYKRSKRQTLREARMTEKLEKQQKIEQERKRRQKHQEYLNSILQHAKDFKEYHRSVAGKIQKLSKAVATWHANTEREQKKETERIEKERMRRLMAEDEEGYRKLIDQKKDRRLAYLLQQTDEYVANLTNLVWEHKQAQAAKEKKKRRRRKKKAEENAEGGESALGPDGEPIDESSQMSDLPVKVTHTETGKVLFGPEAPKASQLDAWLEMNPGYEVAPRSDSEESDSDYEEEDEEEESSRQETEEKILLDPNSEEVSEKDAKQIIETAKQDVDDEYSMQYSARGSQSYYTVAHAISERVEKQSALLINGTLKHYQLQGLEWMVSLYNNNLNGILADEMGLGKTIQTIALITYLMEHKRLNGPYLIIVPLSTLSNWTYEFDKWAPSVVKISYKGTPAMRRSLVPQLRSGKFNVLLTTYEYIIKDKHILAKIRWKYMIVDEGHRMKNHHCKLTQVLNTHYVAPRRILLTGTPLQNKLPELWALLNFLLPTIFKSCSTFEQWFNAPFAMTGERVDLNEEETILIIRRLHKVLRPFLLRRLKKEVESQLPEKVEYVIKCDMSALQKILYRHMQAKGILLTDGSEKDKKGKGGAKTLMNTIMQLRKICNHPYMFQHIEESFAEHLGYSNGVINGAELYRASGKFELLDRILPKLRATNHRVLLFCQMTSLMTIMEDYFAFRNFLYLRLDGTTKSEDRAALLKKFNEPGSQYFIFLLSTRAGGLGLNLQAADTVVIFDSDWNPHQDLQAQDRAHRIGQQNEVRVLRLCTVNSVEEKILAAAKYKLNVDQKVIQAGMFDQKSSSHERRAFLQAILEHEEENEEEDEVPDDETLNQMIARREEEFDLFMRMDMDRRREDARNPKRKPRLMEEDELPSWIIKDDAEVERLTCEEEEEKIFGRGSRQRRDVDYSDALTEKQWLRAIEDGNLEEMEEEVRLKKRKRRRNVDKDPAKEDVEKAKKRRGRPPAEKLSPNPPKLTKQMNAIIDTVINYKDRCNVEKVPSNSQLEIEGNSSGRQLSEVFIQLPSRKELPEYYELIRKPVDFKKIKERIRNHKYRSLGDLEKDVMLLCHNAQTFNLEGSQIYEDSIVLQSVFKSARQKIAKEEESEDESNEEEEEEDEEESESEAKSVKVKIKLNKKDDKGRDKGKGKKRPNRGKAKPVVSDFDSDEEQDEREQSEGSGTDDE
Summary of the method: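 Percent BRM loss was derived from HiBiT luminescence relative to DMSO-treated cells and cells given 2 μM of a known BRM/BRG1 degrader. Treatment lasted 24 h in HiBiT-BRM HeLa cells, with a top final concentration of 30 μM.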

| SMILES | Dmax [1] [%] | BRM HiBit Degradation Maximum (%) (HiBit-BRM fusion protein) | DC50 (HiBit-BRM fusion protein) [nM] | DC50 [1] [nM] |
| --- | --- | --- | --- | --- |
| Cc1ncsc1-c1ccc([C@H](C)NC(=O)[C@@H]2C[C@@H](O)CN2C(=O)[C@@H](c2cc(OCCN3C[C@@H]4[C@H](C3)[C@H]4c3cc4cc(-c5cccc(Cl)c5O)nnc4[nH]3)no2)C(C)C)cc1 (racemic) [Compound 110, (2S,4R)-1-((R)-2-(3-(2-((1R,5S,6R)-6-(3-(3-chloro-2-hydroxyphenyl)-7H-pyrrolo[2,3-c]pyridazin-6-yl)-3-azabicyclo[3.1.0]hexan-3-yl)ethoxy)isoxazol-5-yl)-3-methylbutanoyl)-4-hydroxy-N-((S)-1-(4-(4-methylthiazol-5-yl)phenyl)ethyl)pyrrolidine-2-carboxamide] | < 50 | A (“A” indicates maximum degradation ≥ 75%) | > 10 | – |
| Cc1ncsc1-c1ccc([C@H](C)NC(=O)[C@@H]2C[C@@H](O)CN2C(=O)[C@@H](c2cc(N3CCC(N(C)[C@H]4CCc5[nH]c6nnc(-c7ccccc7O)cc6c5C4)CC3)no2)C(C)C)cc1 (racemic) [Compound 111, (2S,4R)-4-hydroxy-1-((R)-2-(3-(4-(((S)-3-(2-hydroxyphenyl)-6,7,8,9-tetrahydro-5H-pyridazino[3,4-b]indol-6-yl)(methyl)amino)piperidin-1-yl)isoxazol-5-yl)-3-methylbutanoyl)-N-((S)-1-(4-(4-methylthiazol-5-yl)phenyl)ethyl)pyrrolidine-2-carboxamide] | > 50 | A (“A” indicates maximum degradation ≥ 75%) | > 10 | > 100 |
| Cc1ncsc1-c1ccc([C@H](C)NC(=O)[C@@H]2C[C@@H](O)CN2C(=O)[C@@H](c2cc(C3CCN(Cc4cc5cc(-c6ccccc6O)nnc5[nH]4)CC3)no2)C(C)C)cc1 (racemic) [Compound 118, (2S,4R)-4-hydroxy-1-((R)-2-(3-(1-((3-(2-hydroxyphenyl)-7H-pyrrolo[2,3-c]pyridazin-6-yl)methyl)piperidin-4-yl)isoxazol-5-yl)-3-methylbutanoyl)-N-((S)-1-(4-(4-methylthiazol-5-yl)phenyl)ethyl)pyrrolidine-2-carboxamide] | < 50 | A (“A” indicates maximum degradation ≥ 75%) | > 10 | – |
| Cc1ncsc1-c1ccc([C@H](C)NC(=O)[C@@H]2C[C@@H](O)CN2C(=O)[C@@H](c2cc(OCCN3CC(c4[nH]c5nnc(-c6ccccc6O)cc5c4Br)C3)no2)C(C)C)cc1 (racemic) [Compound 120] | < 50 | A (“A” indicates maximum degradation ≥ 75%) | > 10 | – |
| Cc1ncsc1-c1ccc([C@H](C)NC(=O)[C@@H]2C[C@@H](O)CN2C(=O)[C@@H](c2cc(OCCN3CC(c4[nH]c5nnc(-c6ccccc6O)cc5c4F)C3)no2)C(C)C)cc1 (racemic) [Compound 121, (2S,4R)-1-[(2R)-2-[3-(2-{3-[5-fluoro-3-(2-hydroxyphenyl)-7H-pyrrolo[2,3-c]pyridazin-6-yl]azetidin-1-yl}ethoxy)-1,2-oxazol-5-yl]-3-methylbutanoyl]-4-hydroxy-N-[(1S)-1-[4-(4-methyl-1,3-thiazol-5-yl)phenyl]ethyl]pyrrolidine-2-carboxamide] | < 50 | A (“A” indicates maximum degradation ≥ 75%) | > 100 | – |
| Cc1ncsc1-c1ccc([C@H](C)NC(=O)[C@@H]2C[C@@H](O)CN2C(=O)[C@@H](c2cc(N3CCN(C(=O)N4CC(c5cc6cc(-c7ccccc7O)nnc6[nH]5)C4)CC3)no2)C(C)C)cc1 (racemic) [Compound 124, (2S,4R)-4-hydroxy-1-[(2R)-2-[3-(4-{3-[3-(2-hydroxyphenyl)-7H-pyrrolo[2,3-c]pyridazin-6-yl]azetidine-1-carbonyl}piperazin-1-yl)-1,2-oxazol-5-yl]-3-methylbutanoyl]-N-[(1S)-1-[4-(4-methyl-1,3-thiazol-5-yl)phenyl]ethyl]pyrrolidine-2-carboxamide] | – | A (“A” indicates maximum degradation ≥ 75%) | > 10 | > 100 |
| Cc1ncsc1-c1ccc([C@H](C)NC(=O)[C@@H]2C[C@@H](O)CN2C(=O)[C@@H](c2cc(OCCN3C[C@@H]4[C@H](C3)[C@H]4c3[nH]c4nnc(-c5cc(F)cc(F)c5O)cc4c3C)no2)C(C)C)cc1 (racemic) [Compound 125, (2S,4R)-1-((R)-2-(3-(2-((1R,5S,6R)-6-(3-(3,5-difluoro-2-hydroxyphenyl)-5-methyl-7H-pyrrolo[2,3-c]pyridazin-6-yl)-3-azabicyclo[3.1.0]hexan-3-yl)ethoxy)isoxazol-5-yl)-3-methylbutanoyl)-4-hydroxy-N-((S)-1-(4-(4-methylthiazol-5-yl)phenyl)ethyl)pyrrolidine-2-carboxamide] | < 50 | A (“A” indicates maximum degradation ≥ 75%) | > 10 | – |
| Cc1ncsc1-c1ccc([C@H](C)NC(=O)[C@@H]2C[C@@H](O)CN2C(=O)[C@@H](c2cc(OCCN3C[C@@H]4[C@H](C3)[C@H]4c3[nH]c4nnc(-c5cccc(F)c5O)cc4c3C)no2)C(C)C)cc1 (racemic) [Compound 126, (2S,4R)-1-((R)-2-(3-(2-((1R,5S,6R)-6-(3-(3-fluoro-2-hydroxyphenyl)-5-methyl-7H-pyrrolo[2,3-c]pyridazin-6-yl)-3-azabicyclo[3.1.0]hexan-3-yl)ethoxy)isoxazol-5-yl)-3-methylbutanoyl)-4-hydroxy-N-((S)-1-(4-(4-methylthiazol-5-yl)phenyl)ethyl)pyrrolidine-2-carboxamide] | > 50 | A (“A” indicates maximum degradation ≥ 75%) | > 10 | > 100 |
| Cc1ncsc1-c1ccc([C@H](C)NC(=O)[C@@H]2C[C@@H](O)CN2C(=O)[C@@H](c2cc(OCCN3CC(c4[nH]c5nnc(-c6cccc(F)c6O)cc5c4C)C3)no2)C(C)C)cc1 (racemic) [Compound 127, (2S,4R)-1-((R)-2-(3-(2-(3-(3-(3-fluoro-2-hydroxyphenyl)-5-methyl-7H-pyrrolo[2,3-c]pyridazin-6-yl)azetidin-1-yl)ethoxy)isoxazol-5-yl)-3-methylbutanoyl)-4-hydroxy-N-((S)-1-(4-(4-methylthiazol-5-yl)phenyl)ethyl)pyrrolidine-2-carboxamide] | < 50 | A (“A” indicates maximum degradation ≥ 75%) | > 10 | – |
| Cc1ncsc1-c1ccc([C@H](C)NC(=O)[C@@H]2C[C@@H](O)CN2C(=O)[C@@H](c2cc(OCCCN3C[C@@H]4[C@H](C3)[C@H]4c3c(C)[nH]c4nnc(-c5ccccc5O)cc34)no2)C(C)C)cc1 (racemic) [Compound 128, (2S,4R)-4-hydroxy-1-((R)-2-(3-(3-((1R,5S,6S)-6-(3-(2-hydroxyphenyl)-6-methyl-7H-pyrrolo[2,3-c]pyridazin-5-yl)-3-azabicyclo[3.1.0]hexan-3-yl)propoxy)isoxazol-5-yl)-3-methylbutanoyl)-N-((S)-1-(4-(4-methylthiazol-5-yl)phenyl)ethyl)pyrrolidine-2-carboxamide] | > 75 | A (“A” indicates maximum degradation ≥ 75%) | < 10 | > 10 |
| Cc1ncsc1-c1ccc([C@H](C)NC(=O)[C@@H]2C[C@@H](O)CN2C(=O)[C@@H](c2cc(OCCN3CC(c4[nH]c5nnc(-c6cc(F)cc(Cl)c6O)cc5c4C)C3)no2)C(C)C)cc1 (racemic) [Compound 129, (2S,4R)-1-((R)-2-(3-(2-(3-(3-(3-chloro-5-fluoro-2-hydroxyphenyl)-5-methyl-7H-pyrrolo[2,3-c]pyridazin-6-yl)azetidin-1-yl)ethoxy)isoxazol-5-yl)-3-methylbutanoyl)-4-hydroxy-N-((S)-1-(4-(4-methylthiazol-5-yl)phenyl)ethyl)pyrrolidine-2-carboxamide] | > 50 | A (“A” indicates maximum degradation ≥ 75%) | > 10 | > 100 |
| Cc1ncsc1-c1ccc([C@H](C)NC(=O)[C@@H]2C[C@@H](O)CN2C(=O)[C@@H](c2cc(OCCN3CC(c4[nH]c5nnc(-c6cc(F)ccc6O)cc5c4C)C3)no2)C(C)C)cc1 (racemic) [Compound 130, (2S,4R)-1-((R)-2-(3-(2-(3-(3-(5-fluoro-2-hydroxyphenyl)-5-methyl-7H-pyrrolo[2,3-c]pyridazin-6-yl)azetidin-1-yl)ethoxy)isoxazol-5-yl)-3-methylbutanoyl)-4-hydroxy-N-((S)-1-(4-(4-methylthiazol-5-yl)phenyl)ethyl)pyrrolidine-2-carboxamide] | > 75 | A (“A” indicates maximum degradation ≥ 75%) | < 10 | > 100 |
| Cc1ncsc1-c1ccc([C@H](C)NC(=O)[C@@H]2C[C@@H](O)CN2C(=O)[C@@H](c2cc(OCCN3C[C@@H]4[C@H](C3)[C@H]4c3[nH]c4nnc(-c5ccccc5O)cc4c3Cl)no2)C(C)C)cc1 (racemic) [Compound 131, (2S,4R)-1-[(2R)-2-(3-{2-[(1R,5S,6S)-6-[5-chloro-3-(2-hydroxyphenyl)-7H-pyrrolo[2,3-c]pyridazin-6-yl]-3-azabicyclo[3.1.0]hexan-3-yl]ethoxy}-1,2-oxazol-5-yl)-3-methylbutanoyl]-4-hydroxy-N-[(1S)-1-[4-(4-methyl-1,3-thiazol-5-yl)phenyl]ethyl]pyrrolidine-2-carboxamide] | > 50 | A (“A” indicates maximum degradation ≥ 75%) | > 10 | > 100 |
